Source: patent EP2861555B1, “PROCESS FOR DEPIGMENTING KERATIN MATERIALS USING NOVEL RESORCINOL-BASED COMPOUNDS” (L'Oréal, priority 2012, dated 2013)

Key:
[1] = tested on: coculture of keratinocytes and melanocytes; assay: Cytotoxicity on keratinocyte/melanocyte coculture, estimated by incorporation of leucine; format: cell-based
[2] = tested on: coculture of keratinocytes and melanocytes; assay: Inhibitory activity on melanin synthesis (constitutive melanogenesis), ratio of thiouracil to leucine incorporation; format: cell-based; conditions: concentration for which 50% of the synthesis of the melanin is inhibited; thiouracil/leucine incorporation ratio relative to 100% for the control
Protocol: This test is carried out on a coculture of keratinocytes and melanocytes.
For the test compound, the following were determined: • the cytotoxicity, by estimating the incorporation of leucine, • the inhibitory activity on melanin synthesis, by estimating the ratio of the incorporation of thiouracil to the incorporation of leucine, relative to 100% for the control (the control corresponds to the test performed without test compound). The IC50 (concentration for which 50% of the synthesis of the melanin is inhibited) values were determined.
The test was also carried out with arbutin and kojic acid, which are known depigmenting compounds.

[3] = tested on: pigmented reconstructed epidermis; assay: Test on pigmented reconstructed epidermis samples, melanin quantified by image analysis; format: cell-based, human
Protocol: Compositions comprising 300 µM of compound 1 in DMSO were applied to samples of pigmented reconstructed epidermis (cf. EP 1 878 790). The control is DMSO. The melanin was quantified by image analysis on histological slices after staining with Fontana Masson dye. Each sample of coloured epidermis is photographed over its entire length using a camera connected to a microscope. The melanin is thresholded and the number of melanin pixels is measured in each field using automated image analysis software. A non-parametric statistical test is performed in order to determine the significance of the measurements (Mann-Whitney test).
The pigmented reconstructed epidermis standard study model was published by: Regnier M, Duval C, Galey JB, Philippe M, Lagrange A, Tuloup R, Schmidt R, Cellular and Molecular Biology, 1999, 45, 7, 969-980: "Keratinocyte-Melanocyte co-cultures and pigmented reconstructed human epidermis: models to study modulation of melanogenesis".

Row | Structure (SMILES) | Cytotoxicity on coculture [1] | IC50 [2] | depigmenting activity ([3]; 300 µM, pValue < 0.05 (Ttest 0.0006 in table), Mann-Whitney test) | Percentage (normalized) ([3]; topical application 300 uM in DMSO, melanin area normalized to DMSO 1/1000 control = 100) | Average area ([3]; topical application 300 uM in DMSO, melanin pixels by image analysis after Fontana Masson staining, DMSO 1/1000 control 368.5)
1 | OC[C@H]1O[C@@H](Oc2ccc(O)cc2)[C@H](O)[C@@H](O)[C@@H]1O [Arbutin, reference compound] | Non-cytotoxic | > 500 µM |  |  | 
2 | CCOC(=O)[C@H](Cc1ccccc1)NC(=O)C(CCO)Cc1ccc(O)cc1O (stereo partly shown) [Compound 1, ethyl N-[2-(2,4-dihydroxybenzyl)-4-hydroxybutanoyl]phenylalaninate] |  |  | Significant depigmenting activity | 71.7 | 264.2
3 | O=c1cc(CO)occ1O [Kojic acid, reference compound] | 100 µM | > 500 µM |  |  | 
4 | CCCCC(CC)CNC(=O)C(CCO)Cc1ccc(O)cc1O (stereo not shown) | 50 µM | 25.2 µM |  |  | 
5 | CCOC(=O)C(Cc1ccccc1)NC(=O)C(CCO)Cc1ccc(O)cc1O (stereo not shown) | Non-cytotoxic | 0.15 µM |  |  | 
6 | CCOC(=O)C(CC(C)C)NC(=O)C(CCO)Cc1ccc(O)cc1O (stereo not shown) | Non-cytotoxic | 100 µM |  |  | 
